According to US20220204539A1, “CD73 INHIBITORS” (BioArdis LLC, priority 2019, published 2022):

Biological target: T1, Recombinant Human 5′-Nucleotidase (CD73) (Homo sapiens, UniProt P21589)
T1 construct: CHO derived CD73 (Trp27-Lys547), with a C-terminal 6-His tag; 6-His (C); purchased R&D 5795-EN; host or cells: CHO
T1 sequence (P21589 27-547): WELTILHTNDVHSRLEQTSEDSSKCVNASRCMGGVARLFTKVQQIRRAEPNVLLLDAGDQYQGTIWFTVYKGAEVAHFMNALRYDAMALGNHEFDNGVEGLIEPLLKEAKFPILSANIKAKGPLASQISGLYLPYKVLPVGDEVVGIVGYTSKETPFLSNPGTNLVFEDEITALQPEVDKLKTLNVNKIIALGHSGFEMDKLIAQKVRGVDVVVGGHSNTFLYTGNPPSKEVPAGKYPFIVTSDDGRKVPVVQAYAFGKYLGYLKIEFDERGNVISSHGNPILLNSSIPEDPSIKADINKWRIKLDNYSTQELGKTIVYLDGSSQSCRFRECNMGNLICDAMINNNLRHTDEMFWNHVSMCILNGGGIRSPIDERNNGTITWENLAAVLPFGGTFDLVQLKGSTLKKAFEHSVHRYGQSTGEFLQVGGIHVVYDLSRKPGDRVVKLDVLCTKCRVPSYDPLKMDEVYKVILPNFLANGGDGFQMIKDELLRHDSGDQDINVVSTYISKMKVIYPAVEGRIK
Test: CD73 Enzyme Assay
Assay type: biochemical
Conditions: human CD73 0.5 nM, AMP 30 μM, PiColorLock phosphate detection; read-out: Potency (IC50, CD73 enzyme assay)
Excerpt: Soluble recombinant CD73 catalyzes the conversion of adenosine monophosphate (AMP) to adenosine and inorganic phosphate. The phosphate detection reagent, PiColorLock™ (Innova Bioscience, Cat #303-0125) is based on the change in absorbance of the dye malachite green in the presence of inorganic phosphate (Pi) and this property can be exploited to measure any enzyme that generates Pi. Recombinant Human 5′-Nucleotidase (CD73) (R&D #5795-EN, CHO derived CD73 (Trp27-Lys547), with a C-terminal 6-His tag) was used in the enzymatic assay. This assay was run in a 384-well plate format (Corning® NBS™ 384 well plates, Cat #3640). The basic assay procedure involves two steps: 1) Enzyme reaction: The CD73 enzyme (R&D #5795-EN) is incubated in the presence or absence of compounds. AMP (sigma, cat #01930) is added to start the […] reaction. 2) Detection step: Gold mix is added to the assay system, then stabilizers are added. After incubation the absorbance of the solution is read at OD 635 nm. The recorded OD signal is proportional to the enzyme activity.
Briefly, 25 μl human CD73 (0.5 nM final concentration) in the enzymatic buffer solutions (20 mM Tris, 25 mM NaCl, 1 mM MgCl2, pH 7.5, 0.005% Tween-20) were mixed with various concentrations of the test compound (dissolved in 100% DMSO). These solutions were incubated for 15 min at 25° C., and subsequently 25 μl AMP (30 μM final concentration) was added to start the reaction. The final reaction mixture of enzyme-substrate-compound was incubated for 20 min at 37° C. Meanwhile ‘Gold mix’ was prepared shortly before use by adding 1/100 vol. of accelerator to the PiColorLock™ Gold reagent. 12 μL/well of the ‘Gold mix’ was added to assay plate containing 50 μL enzyme reaction buffer and incubated at 25° C. for 5 min. 5 μL/well stabilizer was added to the assay plate and incubated at 25° C. for 30 min. The absorbance of the well solutions was measured at 635 nm on a Spark 10M instrument (TECAN).
The percent (%) inhibition at each concentration of a compound was calculated relative to the OD value in the Max and Min control wells contained within each assay plate. The Max control wells contained enzyme and substrate as 0% inhibition, and the M control wells only contained substrate without enzyme as 100% inhibition. The concentrations and percent inhibition values for a test compound are plotted and the concentration of the compound required to achieve 50% inhibition (IC50) was determined with a four-parameter logistic dose response equation.

Row | Structure (SMILES) | IC50 [nM]
1 | O=P(O)(O)CP(=O)(O)OC[C@H]1OC(c2cnc3c(NCc4ccccc4)ncnn23)[C@@H](F)[C@@H]1O (stereo in doubt) [Compound 3, [({[(2R,3R,4S,5S)-5-[4-(benzylamino)imidazo[2,1-f][1,2,4]triazin-7-yl]-4-fluoro-3-hydroxyoxolan-2-yl]methoxy}(hydroxy)phosphoryl)methyl]phosphonic Acid] | > 1000
2 | O=P(O)(O)CP(=O)(O)OC[C@H]1O[C@H](c2cnc3c(NCc4ccccc4)ncnn23)[C@@H](F)[C@@H]1O [Compound 4, [({[(2R,3R,4S,5R)-5-[4-(benzylamino)imidazo[2,1-f][1,2,4]triazin-7-yl]-4-fluoro-3-hydroxyoxolan-2-yl]methoxy}(hydroxy)phosphoryl)methyl]phosphonic Acid] | > 1000
3 | O=P(O)(O)CP(=O)(O)OC[C@H]1O[C@@H](c2cnc3c(NC4CCCC4)nc(Cl)nn23)[C@@H](F)[C@@H]1O [Compound 7, (((((2R,3R,4S,5S)-5-(2-chloro-4-(cyclopentylamino)imidazo[2,1-f][1,2,4]triazin-7-yl)-4-fluoro-3-hydroxytetrahydrofuran-2-yl)methoxy)(hydroxy)phosphoryl)methyl)phosphonic acid] | 10 to 99
4 | O=P(O)(O)CP(=O)(O)OC[C@H]1O[C@@H](c2cnc3c(NCC4CCCO4)nc(Cl)nn23)[C@H](O)[C@@H]1O (stereo partly drawn) [Compound 13, (((((2R,3S,4R,1S)-5-(2-chloro-4-(((tetrahydrofuran-2-yl)methyl)amino)imidazo[2,1-f][1,2,4]triazin-7-yl)-3,4-dihydroxytetrahydrofuran-2-yl)methoxy)(hydroxy)phosphoryl)methyl) phosphonic Acid] | 10 to 99
5 | CN(C)[C@H]1CC[C@H](Nc2nc(Cl)nn3c([C@@H]4O[C@H](COP(=O)(O)CP(=O)(O)O)[C@@H](O)[C@H]4O)cnc23)C1 [Compound 25, (((((2R,3S,4R,5S)-5-(2-chloro-4-(((1S,3S)-3-(dimethylamino)cyclopentyl)amino)imidazo[2,1-f][1,2,4]triazin-7-yl)-3,4-dihydroxytetrahydrofuran-2-yl)methoxy)(hydroxy)phosphoryl)methyl)phosphonic acid] | 10 to 99
6 | O=C1C[C@H](Nc2nc(Cl)nn3c([C@@H]4O[C@H](COP(=O)(O)CP(=O)(O)O)[C@@H](O)[C@H]4O)cnc23)CN1 [Compound 26, [({[(2R,3S,4R,5S)-5-{2-chloro-4-[(5-oxopyrrolidin-3-yl)amino]imidazo[2,1-f][1,2,4]triazin-7-yl}-3,4-dihydroxyoxolan-2-yl]methoxy}(hydroxy)phosphoryl)methyl]phosphonic acid] | 10 to 99
7 | O=P(O)(O)CP(=O)(O)OC[C@H]1O[C@@H](c2cnc3c(N4CCC[C@@H]4c4ccccc4)nc(Cl)nn23)[C@H](O)[C@@H]1O [Compound 31, [({[(2R,3S,4R,5S)-5-{2-chloro-4-[(2R)-2-phenylpyrrolidin-1-yl]imidazo[2,1-f][1,2,4]triazin-7-yl}-3,4-dihydroxyoxolan-2-yl]methoxy}(hydroxy)phosphoryl)methyl]phosphonic Acid] | 10 to 99
8 | CC(C)(C)[C@@H]1CCCN1c1nc(Cl)nn2c([C@@H]3O[C@H](COP(=O)(O)CP(=O)(O)O)[C@@H](O)[C@H]3O)cnc12 [Compound 38, (((((2R,3S,4R,1S)-5-(4-((S)-2-(tert-butyl)pyrrolidin-1-yl)-2-chloroimidazo[2,1-f][1,2,4]triazin-7-yl)-3,4-dihydroxytetrahydrofuran-2-yl)methoxy)(hydroxy)phosphoryl)methyl)phosphonic Acid] | 10 to 99
9 | CC(C)(C)[C@H]1CCCN1c1nc(Cl)nn2c([C@@H]3O[C@H](COP(=O)(O)CP(=O)(O)O)[C@@H](O)[C@H]3O)cnc12 [Compound 51, (((((2R,3S,4R,1S)-5-(4-((R)-2-(tert-butyl)pyrrolidin-1-yl)-2-chloroimidazo[2,1-f][1,2,4]triazin-7-yl)-3,4-dihydroxytetrahydrofuran-2-yl)methoxy)(hydroxy)phosphoryl)methyl)phosphonic Acid] | 10 to 99
10 | COP(=O)(CP(=O)(OC)OC[C@H]1O[C@@H](c2cnc3c(NC4CCCC4)nc(Cl)nn23)[C@H](O)[C@@H]1O)OC (stereo partly drawn) [Compound 57, ((2R,3S,4R,5S)-5-(2-chloro-4-(cyclopentylamino)imidazo[2,1-f][1,2,4]triazin-7-yl)-3,4-dihydroxytetrahydrofuran-2-yl)methyl methyl ((dimethoxyphosphoryl)methyl)phosphonate] | > 1000
11 | O=P(O)(CP1(=O)OCC[C@@H](c2cccc(Cl)c2)O1)OC[C@H]1O[C@@H](c2cnc3c(NC4CCCC4)nc(Cl)nn23)[C@H](O)[C@@H]1O (stereo partly drawn) [Compound 58, ((2R,3S,4R,5S)-5-(2-chloro-4-(cyclopentylamino)imidazo[2,1-f][1,2,4]triazin-7-yl)-3,4-dihydroxytetrahydrofuran-2-yl)methyl hydrogen (((4S)-4-(3-chlorophenyl)-2-oxido-1,3,2-dioxaphosphinan-2-yl)methyl)phosphonate] | 100 to 999
12 | COP(=O)(CP1(=O)OCC[C@@H](c2cccc(Cl)c2)O1)OC[C@H]1O[C@@H](c2cnc3c(NC4CCCC4)nc(Cl)nn23)[C@H](O)[C@@H]1O (stereo partly drawn) [Compound 59, ((2R,3S,4R,5S)-5-(2-chloro-4-(cyclopentylamino)imidazo[2,1-f][1,2,4]triazin-7-yl)-3,4-dihydroxytetrahydrofuran-2-yl)methyl methyl (((4S)-4-(3-chlorophenyl)-2-oxido-1,3,2-dioxaphosphinan-2-yl)methyl)phosphonate] | > 1000
13 | O=P(O)(O)CP(=O)(O)OC[C@H]1O[C@@H](c2cnc3c(NC4CCCC4)nc(C4CC4)nn23)[C@H](O)[C@@H]1O [Compound 60, (((((2R,3S,4R,1S)-5-(4-(cyclopentylamino)-2-cyclopropylimidazo[2,1-f][1,2,4]triazin-7-yl)-3,4-dihydroxytetrahydrofuran-2-yl)methoxy)(hydroxy)phosphoryl)methyl)phosphonic Acid] | 100 to 999
14 | O=P(O)(O)CP(=O)(O)OC[C@H]1O[C@@H](c2cnc3c(OC4CCCC4)ncnn23)[C@H](O)[C@@H]1O [Compound 61, (((((2R,3S,4R,1S)-5-(4-(cyclopentyloxy)imidazo[2,1-f][1,2,4]triazin-7-yl)-3,4-dihydroxytetrahydrofuran-2-yl)methoxy)(hydroxy)phosphoryl)methyl)phosphonic Acid] | 100 to 999
15 | COCCOCCOP(=O)(CP(=O)(O)O)OC[C@H]1O[C@@H](c2cnc3c(NC4CCCC4)nc(Cl)nn23)[C@H](O)[C@@H]1O (stereo partly drawn) [Compound 67, (((((2R,3S,4R,5S)-5-(2-chloro-4-(cyclopentylamino)imidazo[2,1-f][1,2,4]triazin-7-yl)-3,4-dihydroxytetrahydrofuran-2-yl)methoxy)(2-(2-methoxyethoxy)ethoxy)phosphoryl)methyl)phosphonic acid] | 10 to 99
16 | N#CCCOP(=O)(CP(=O)(O)O)OC[C@H]1O[C@@H](c2cnc3c(NC4CCCC4)nc(Cl)nn23)[C@H](O)[C@@H]1O (stereo partly drawn) [Compound 69, (((((2R,3S,4R,5S)-5-(2-chloro-4-(cyclopentylamino)imidazo[2,1-f][1,2,4]triazin-7-yl)-3,4-dihydroxytetrahydrofuran-2-yl)methoxy)(2-cyanoethoxy)phosphoryl)methyl) phosphonic acid] | 10 to 99
